PubChem BioAssay (NCI)
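Five concentrations, 48 hours, 96-well plates. GI50 = concentration required for 50% inhibition of growth. Definition used: TGI = concentration required for complete inhibition of growth.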

What was measured:
Experiment in all cases: inhibition of tumour cell growth, NCI panel, 48 h
[1] = system: MDA-MB-435
[2] = system: 786-0 renal
[3] = system: NCI-H23 lung
[4] = system: NCI-H460 lung
[5] = system: SNB-75 CNS
[6] = system: SNB-19 CNS
[7] = system: SK-MEL-28 melanoma
[8] = system: SF-295 CNS
[9] = system: UACC-257 melanoma
[10] = system: HL-60(TB) leukemia
[11] = system: CCRF-CEM leukemia
[12] = system: SK-OV-3 ovarian
[13] = system: MOLT-4 leukemia
[14] = system: COLO 205 colon
[15] = system: OVCAR-4 ovarian
[16] = system: SK-MEL-2 melanoma
[17] = system: M14 melanoma
[18] = system: SR leukemia
[19] = system: OVCAR-8 ovarian
[20] = system: A498 renal
[21] = system: IGROV1 ovarian
[22] = system: OVCAR-5 ovarian
[23] = system: BT-549 breast
[24] = system: SK-MEL-5 melanoma
[25] = system: SN12C renal
[26] = system: RXF 393 renal
[27] = system: SF-268 CNS
[28] = system: HOP-92 NSCLC
[29] = system: CAKI-1 renal
[30] = system: LOX IMVI melanoma
[31] = system: U251 CNS
[32] = system: HT29 colon
[33] = system: MCF7 breast
[34] = system: MALME-3M melanoma
[35] = system: TK-10 renal
[36] = system: MDA-MB-231 breast
[37] = system: PC-3 prostate
[38] = system: KM12 colon
[39] = system: T-47D breast
[40] = system: OVCAR-3 ovarian
[41] = system: ACHN renal
[42] = system: HOP-62 NSCLC
[43] = system: HCC-2998 colon
[44] = system: HCT-15 colon
[45] = system: HS 578T breast
[46] = system: NCI-H522 lung
[47] = system: A549 NSCLC
[48] = system: NCI/ADR-RES ovarian
[49] = system: RPMI-8226 leukemia
[50] = system: UACC-62 melanoma
[51] = system: SF-539 CNS
[52] = system: NCI-H226 lung
[53] = system: SW-620 colon
[54] = system: EKVX NSCLC
[55] = system: UO-31 renal
[56] = system: HCT-116 colon
[57] = system: DU-145 prostate
[58] = system: K-562 leukemia

SMILES: CCOC(=O)c1cc2cc(OCc3ccccc3)ccc2[nH]1
- GI50 [1]: > 100 µM
- TGI [1]: > 100 µM
- GI50 [2]: > 100 µM
- TGI [2]: > 100 µM
- GI50 [3]: > 100 µM
- TGI [3]: > 100 µM
- GI50 [4]: > 100 µM
- TGI [4]: > 100 µM
- GI50 [5]: 26 µM
- TGI [5]: > 100 µM
- GI50 [6]: > 100 µM
- TGI [6]: > 100 µM
- GI50 [7]: > 100 µM
- TGI [7]: > 100 µM
- GI50 [8]: > 100 µM
- TGI [8]: > 100 µM
- GI50 [9]: > 100 µM
- TGI [9]: > 100 µM
- GI50 [10]: 12.2 µM
- TGI [10]: 66.7 µM
- GI50 [11]: > 100 µM
- TGI [11]: > 100 µM
- GI50 [12]: > 100 µM
- TGI [12]: > 100 µM
- GI50 [13]: 36.7 µM
- TGI [13]: > 100 µM
- GI50 [14]: > 100 µM
- TGI [14]: > 100 µM
- GI50 [15]: > 100 µM
- TGI [15]: > 100 µM
- GI50 [16]: > 100 µM
- TGI [16]: > 100 µM
- GI50 [17]: > 100 µM
- TGI [17]: > 100 µM
- GI50 [18]: > 100 µM
- TGI [18]: > 100 µM
- GI50 [19]: > 100 µM
- TGI [19]: > 100 µM
- GI50 [20]: > 100 µM
- TGI [20]: > 100 µM
- GI50 [21]: > 100 µM
- TGI [21]: > 100 µM
- GI50 [22]: > 100 µM
- TGI [22]: > 100 µM
- GI50 [23]: > 100 µM
- TGI [23]: > 100 µM
- GI50 [24]: > 100 µM
- TGI [24]: > 100 µM
- GI50 [25]: > 100 µM
- TGI [25]: > 100 µM
- GI50 [26]: > 100 µM
- TGI [26]: > 100 µM
- GI50 [27]: > 100 µM
- TGI [27]: > 100 µM
- GI50 [28]: 62.3 µM
- TGI [28]: > 100 µM
- GI50 [29]: > 100 µM
- TGI [29]: > 100 µM
- GI50 [30]: > 100 µM
- TGI [30]: > 100 µM
- GI50 [31]: > 100 µM
- TGI [31]: > 100 µM
- GI50 [32]: > 100 µM
- TGI [32]: > 100 µM
- GI50 [33]: > 100 µM
- TGI [33]: > 100 µM
- GI50 [34]: > 100 µM
- TGI [34]: > 100 µM
- GI50 [35]: > 100 µM
- TGI [35]: > 100 µM
- GI50 [36]: 49.2 µM
- TGI [36]: > 100 µM
- GI50 [37]: > 100 µM
- TGI [37]: > 100 µM
- GI50 [38]: > 100 µM
- TGI [38]: > 100 µM
- GI50 [39]: > 100 µM
- TGI [39]: > 100 µM
- GI50 [40]: > 100 µM
- TGI [40]: > 100 µM
- GI50 [41]: > 100 µM
- TGI [41]: > 100 µM
- GI50 [42]: 92.7 µM
- TGI [42]: > 100 µM
- GI50 [43]: > 100 µM
- TGI [43]: > 100 µM
- GI50 [44]: > 100 µM
- TGI [44]: > 100 µM
- GI50 [45]: 49.6 µM
- TGI [45]: > 100 µM
- GI50 [46]: > 100 µM
- TGI [46]: > 100 µM
- GI50 [47]: > 100 µM
- TGI [47]: > 100 µM
- GI50 [48]: > 100 µM
- TGI [48]: > 100 µM
- GI50 [49]: > 100 µM
- TGI [49]: > 100 µM
- GI50 [50]: > 100 µM
- TGI [50]: > 100 µM
- GI50 [51]: > 100 µM
- TGI [51]: > 100 µM
- GI50 [52]: > 100 µM
- TGI [52]: > 100 µM
- GI50 [53]: > 100 µM
- TGI [53]: > 100 µM
- GI50 [54]: > 100 µM
- TGI [54]: > 100 µM
- GI50 [55]: > 100 µM
- TGI [55]: > 100 µM
- GI50 [56]: > 100 µM
- TGI [56]: > 100 µM
- GI50 [57]: > 100 µM
- TGI [57]: > 100 µM

SMILES: Cc1ccccc1CNc1c2ccccc2nc2ccccc12
- GI50 [1]: 1.67 µM
- TGI [1]: 3.18 µM
- GI50 [2]: 2.54 µM
- TGI [2]: 7.47 µM
- GI50 [3]: 1.71 µM
- TGI [3]: 4.24 µM
- GI50 [4]: 1.86 µM
- TGI [4]: 4.71 µM
- GI50 [5]: 1.7 µM
- TGI [5]: 8.36 µM
- GI50 [6]: 3.27 µM
- TGI [6]: 13.7 µM
- GI50 [7]: 2.15 µM
- TGI [7]: 5.02 µM
- GI50 [8]: 2.67 µM
- TGI [8]: 11.8 µM
- GI50 [9]: 2.2 µM
- TGI [9]: 5.23 µM
- GI50 [10]: 2.17 µM
- TGI [10]: 5.06 µM
- GI50 [11]: 1.97 µM
- TGI [11]: 12.6 µM
- GI50 [12]: 2.62 µM
- TGI [12]: 9.91 µM
- GI50 [13]: 2.67 µM
- TGI [13]: 8.14 µM
- GI50 [14]: 1.6 µM
- TGI [14]: 3.5 µM
- GI50 [15]: 1.92 µM
- TGI [15]: 6.4 µM
- GI50 [16]: 2.01 µM
- TGI [16]: 4.19 µM
- GI50 [17]: 1.51 µM
- TGI [17]: 3.2 µM
- GI50 [18]: 1.72 µM
- TGI [18]: 5.87 µM
- GI50 [19]: 2.63 µM
- TGI [19]: 12.2 µM
- GI50 [20]: 1.42 µM
- TGI [20]: 2.96 µM
- GI50 [21]: 2 µM
- TGI [21]: 5.01 µM
- GI50 [22]: 2.08 µM
- TGI [22]: 7.57 µM
- GI50 [23]: 2.18 µM
- TGI [23]: 6.15 µM
- GI50 [24]: 1.69 µM
- TGI [24]: 3.05 µM
- GI50 [25]: 2.47 µM
- TGI [25]: 8.97 µM
- GI50 [26]: 1.63 µM
- TGI [26]: 3.14 µM
- GI50 [58]: 2.32 µM
- TGI [58]: 11.4 µM
- GI50 [27]: 2.67 µM
- TGI [27]: 9.33 µM
- GI50 [28]: 0.834 µM
- TGI [28]: 4.54 µM
- GI50 [29]: 1.42 µM
- TGI [29]: 3.45 µM
- GI50 [30]: 1.49 µM
- TGI [30]: 2.93 µM
- GI50 [31]: 2.91 µM
- TGI [31]: 11.4 µM
- GI50 [32]: 1.97 µM
- TGI [32]: 10 µM
- GI50 [33]: 1.84 µM
- TGI [33]: 4.78 µM
- GI50 [34]: 1.66 µM
- TGI [34]: 3.11 µM
- GI50 [35]: 2.78 µM
- TGI [35]: 11.7 µM
- GI50 [36]: 1.7 µM
- TGI [36]: 4.19 µM
- GI50 [37]: 1.88 µM
- TGI [37]: 8.79 µM
- GI50 [38]: 2.95 µM
- TGI [38]: 10.1 µM
- GI50 [39]: 2.08 µM
- TGI [39]: 5.93 µM
- GI50 [40]: 2.39 µM
- TGI [40]: 5.93 µM
- GI50 [41]: 1.65 µM
- TGI [41]: 3.66 µM
- GI50 [42]: 3.02 µM
- TGI [42]: 14.6 µM
- GI50 [43]: 1.73 µM
- TGI [43]: 3.65 µM
- GI50 [44]: 1.8 µM
- TGI [44]: 4.02 µM
- GI50 [45]: 2.34 µM
- TGI [45]: 5.99 µM
- GI50 [46]: 1.61 µM
- TGI [46]: 4.32 µM
- GI50 [47]: 2.09 µM
- TGI [47]: 5.22 µM
- GI50 [48]: 2.07 µM
- TGI [48]: 6.16 µM
- GI50 [49]: 1.52 µM
- TGI [49]: 4.56 µM
- GI50 [50]: 1.83 µM
- TGI [50]: 4.28 µM
- GI50 [51]: 1.84 µM
- TGI [51]: 4 µM
- GI50 [52]: 2.24 µM
- TGI [52]: 6.17 µM
- GI50 [53]: 1.77 µM
- TGI [53]: 5.64 µM
- GI50 [54]: 2.43 µM
- TGI [54]: 8.02 µM
- GI50 [55]: 1.33 µM
- TGI [55]: 3.91 µM
- GI50 [56]: 1.11 µM
- TGI [56]: 8.31 µM
- GI50 [57]: 2.91 µM
- TGI [57]: 10.1 µM
